One experiment relates to HUVEC. Put plainly: HUVEC tube formation assay. In kind it is cell-based, human. Particulars: 25 μM peptide; FIG. 3 A-B. As for the experimental part:
Tube Formation Inhibition Assays.
The compositions also were tested for their ability to inhibit tube formation, a process critical in angiogenesis. Endothelial cells spontaneously form a network of tubes when plated on extracts of extracellular matrix. This in vitro assay combines aspects of adhesion and migration and it is routinely used in angiogenesis research (Oliveira-Ferrer et al., 2008). The ability to inhibit tube formation is a comprehensive assessment of the anti-angiogenic potential. The protocol was described by Arnaoutova et al. (2009) and it consists of plating HUVEC on top of basement membrane extract. After incubation at 37° C., the cells naturally rearrange themselves in a network of tubes. Thus, 50 μL/well of Matrigel (BD Biosciences, San Jose, Calif.) was plated in a cold 96 well plate and incubated at 37° C. for 30 min for polymerization. 15,000 cells/well were added to the top of the gel and incubated in complete media in the presence or absence of peptide for 19 hours. Images were captured using the CCD Sensicam mounted on a Nikon microscope (Eclipse T-100). Assays were performed in at least two independent replicates and each replicate was performed using three experimental replicates and one image of a randomly chosen field was acquired per well.

Experiment [1] has as its system MDA-MB-231 orthotopic tumors. Briefly: MDA-MB-231 orthotopic tumor xenografts in SCID mice. Particulars: 33 days, 20 mg of SP2043/kg, intraperitoneal injection, FIG. 9. In kind it is in vivo. As for the experimental part: Orthotopic breast tumors were initiated in SCID mice using human triple-negative breast cancer cells MDA-MB-231. 2×10^6 cells per 100 μL aliquot of single cell suspension were injected in the breast mammary fat pad. Tumors reached volumes of 75-100 mm^3 in approximately 14-21 days. Mice were randomized and arranged in groups (8 mice per group) with similar tumor volumes (no statistical difference among averages) and treatment was commenced. […] Tumors were measured every fourth day using calipers and the tumor volume was calculated using the formula V=ab^2/2, where “a” is the larger and “b” is the smaller diameter.

Experiment [2] relates to human retinal endothelial cells (HREC). Put plainly: Migration assay (RT-CIM), HREC. Particulars: FIG. 2. In kind it is cell-based. As for the experimental part:
The inhibitory potential of the peptides was measured using a real time migration assay system based on electrical impedance (RT-CIM, ACEA Biosciences, CA). CIM 16 well plates (Roche, 05665817001) are composed of a top and bottom chamber separated by a microporous (8 μm) polycarbonate membrane. The membrane was coated with fibronectin (20 μg/mL), and 45,000 cells/well in serum free media with or without peptides were added to the top compartment. Media with chemoattractant (i.e., fully supplemented EBM-2) was added to the bottom compartment of the chamber and the plate was incubated at 37° C. for 20 hours. The sensors integrated on the bottom side of the membrane monitor and continuously record changes in impedance as the cells move through the membrane. The RT-CIM technology allows for easy quantification of cell migration by monitoring the cell index derived from the measured impedances. Assays were performed in at least two independent replicates and each replicate was performed using two experimental duplicates. Breast cancer cells MDA-MB-231 are not suitable for the RT-CIM type experiments due to their thin elongated phenotype, thus the inhibition of migration was investigated using a wound healing type assay. This assay was performed using the Oris Pro Migration assay (Platypus Technologies, CMA 1.101). […]

The test system of experiment [3] is lymphatic endothelial cell (LEC). Briefly: LEC adhesion assay. In kind it is cell-based. The conditions noted are these: FIG. 4. As for the experimental part: (§1) Similar to the migration assays, the inhibition activity of the peptide in cellular adhesion was assessed using the RT-CIM technology. In this case, 25,000 cells/well were plated in 16 wells E-plates (Roche, Basel Switzerland) in the presence or absence of the peptide. The adhesion was monitored over time (3 hours) by measuring changes in the electrical impedance, which is a direct measure of the cells adhering on the electrodes. Assays were performed in at least two independent replicates and each replicate was performed using two experimental duplicates.

For experiment [4], the system named is human retinal endothelial cells (HREC). Put plainly: Adhesion assay (RT-CIM), HREC. In kind it is cell-based. The conditions noted are these: FIG. 2. As for the experimental part:
as §1

Experiment [5] concerns neovasculature in laser induced CNV. Put plainly: CNV regression model. In kind it is in vivo, mice. Particulars: mouse eye; free peptide; FIG. 14. As for the experimental part: Bruch's membranes of both eyes of C57BL/6J mice were ruptured with a laser after anesthetizing the mice and dilating their pupils with 1% tropicamide. Seven days later, some mice were sacrificed to establish baseline neovascularization. At that time, 1 μg of SP2043 (SEQ ID NO: 1) was administered in one eye and vehicle in the fellow eye of other mice. Seven days later, all animals were perfused with fluorescein-labeled dextran, eyes removed, the retina dissected and flatmounted after making radial cuts, and fluorescence was measured. The images were digitized using a 3-color charge-coupled device video camera and a frame grabber and the area of hypervascularization was quantified by image-analysis software.

The subject of experiment [6] is triple-negative breast cancer cell line MDA-MB-231. Put plainly: Proliferation assay (WST-1), MDA-MB-231. In kind it is cell-based, human. Particulars: in vitro; FIG. 7. As for the experimental part: A colorimetric based proliferation assay using WST-1 (Roche, 11644807001) proliferation reagent was carried out using HREC cells, HUVEC cells, and the breast cancer cells MDA-MB-231, MCF-7, and SUM149. 2000 cells/well were plated in 96-well plates and allowed to adhere overnight. On the following day, the media was exchanged with fully supplemented media containing peptides or equivalent DMSO vehicle for the controls. Three days later, the media containing the peptides was replaced with serum-free EBM-2 media containing WST-1 reagent and the plates were incubated for four hours as per the manufacturer's recommendations. Changes in color, due to the formazan dye resulted from the cleavage of the tetrazolium salt WST-1 by the mitochondrial succinate-tetrazolium reductase, were read on a Victor V fluorescence plate reader (Perkin Elmer, Mass.) by measuring the absorbance at 450 nm. Dose response curves of percent live cells (in comparison to untreated cells, but incubated in complete media with 0.2% DMSO) were created. Assays were performed in at least two independent replicates and each replicate was performed using three experimental triplicates.
For orientation: Formazan colour is commonly taken as a measure of viable cells.

Experiment [7] concerns hepatocyte growth factor (HGF) signaling. Put plainly: HGF signaling in vitro in MEC. In kind it is cell-based. Particulars: FIG. 6.
The test system of another experiment is vascular leakage. Put plainly: Vascular leakage in Tet/Opsin/VEGF mouse model. The conditions noted are these: FIGS. 15A-B. In kind it is in vivo, mice. As for the experimental part:
Vascular Permeability in Mouse Eyes:
Mice were injected intravitreally with 1 μg of SP2043 (SEQ ID NO: 1) in one eye, and vehicle in the fellow eye and vehicle control was injected in the other eye of adult double transgenic Tet/Opsin/VEGF mice. Three days later, the mice were given 2 mg/mL doxycycline in the drinking water for 3 days. At that time the animals were anesthetized and their pupils dilated as for standard fundoscopy. The eyes were examined to compare the number of animals that had retinal detachments under the two treatments by fundus imaging using Micron II retinal imaging and optical coherence tomography imaging using published protocols.

For the sequence “LRRFSTAPFAFIDINDVINF (Artificial sequence based on human Collagen Type IV protein) [SP2043]”, the HUVEC tube formation result in the experiment with HUVEC is listed as “inhibit”. In [1], the “inhibition of tumor growth” value is “about 82%”. In addition, the “migration of HREC” value in experiment [2] is recorded as “inhibit”. The “lymphatic endothelial cell adhesion” value in [3] is recorded as “inhibit”. Further, in [4], the “adhesion of HREC” value was “inhibit”. Further, the “regression of the neovasculature in laser induced CNV model” value in experiment [5] was “caused regression”. The “proliferation of MDA-MB-231” value in experiment [6] is reported as “inhibit”. Besides, the “HGF signaling in MEC” value in experiment [7] is “inhibit”. Further, the “vascular leakage in Tet/Opsin/VEGF mouse model” value with vascular leakage was “inhibited”.

The values above are taken from patent US10774112B2, “Biomimetic peptide and biodegradable delivery platform for the treatment of angiogenesis- and lymphangiogenesis-dependent diseases” (THE JOHNS HOPKINS UNIVERSITY, priority 2013, dated 2020).
